The text below walks through data of paper PMC3820767, “Turning Defense into Offense: Defensin Mimetics as Novel Antibiotics Targeting Lipid II” (PLoS Pathogens, 2013).

Series [1] in a line: Surface Plasmon Resonance binding to immobilized 3-Lipid II. As to conditions: SPR; for Binding on Lipid II?: Table S3, initial determination at 10 µM. The procedure, abridged: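 Binding was measured by Surface Plasmon Resonance on a BIAcore T100 instrument at 25°C. Peptides were injected over the sensor flow-cells at 30 µl/min in running buffer of 10 mM HEPES, 150 mM NaCl, 0.05% surfactant P20, pH 7.4 (±3 mM EDTA) with 10% DMSO. Control flow-cell signals were subtracted, surfaces were regenerated with 50 mM NaOH, and isotherms were fitted with BIAcore software.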

The subject of series [2] is Escherichia coli ATCC 25922. Briefly: Antibacterial killing, 96-well turbidimetric (modified vCC) assay. Format: cell-based. As to conditions: for active against E.coli (IC100%): Table S3, concentration at which 100% killing occurred, no bacterial regrowth, No = not active; for Bacterial Killing E. coli: concentration resulting in 100% killing after 30 min exposure, modified vCC assay. In short, it runs like this: (§1)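 For the S. pneumoniae strains, MIC values follow CLSI broth microdilution standards. The staphylococcal and E. coli killing assay instead pre-incubated bacteria with compound for 30 min in 10 mM phosphate buffer containing 5% DMSO before adding 2× Mueller-Hinton medium, monitoring growth over 12 hours.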

In series [3] the test system is Staphylococcus aureus ATCC 29213. Described as above. The series is classed as cell-based. As to conditions: concentration resulting in 100% killing after 30 min exposure, modified vCC assay. The procedure, abridged: as §1
The nature of series [4]: Cytotoxicity by MTT assay. Format: cell-based, human. The note with it: human, Caco-2 cells; concentration resulting in 50% cell survival, MTT, 24 h; read-out: Cytotoxicity (C50%) Caco-2.
A short description of series [5]: Cytotoxicity by MTT assay. The note with it: human, Jurkat cells; concentration resulting in 50% cell survival, MTT, 4 h; read-out: Cytotoxicity (C50%) Jurkat. Format: cell-based, human.
The subject of series [6] is Enterococcus faecalis (VRE) MMX848. The series can be described thus: Broth microdilution susceptibility testing (CLSI). The series is classed as cell-based. As to conditions: Enterococcus faecalis, VRE, read-out: MIC Enterococcus faecalis (VRE) 848-NA. As to the method: (§2) The antibacterial activity of defensin mimetics against Staphylococcus aureus ATCC 29213 and Escherichia coli 25922 was carried out in a 96-well turbidimetric assay essentially as described previously with the following modifications: bacteria were exposed for 30 min to compounds in 10 mM phosphate buffer containing 5% DMSO prior to addition of 2× Muller-Hinton medium. Bacterial growth was monitored for 12 hours and data were analyzed as described. Determination of MICs was performed by Micromyx, LLC (Kalamazoo, Michigan) according to CLSI standards.
For orientation: In broth dilution the organism is exposed to a series of concentrations in liquid medium.

Series [7] has as its system Enterococcus faecalis MMX101-ATCC 29212. Briefly: Broth microdilution susceptibility testing (CLSI). The series is classed as cell-based. The note with it: Enterococcus faecalis, ATCC29212, read-out: MIC Enterococcus faecalis 101-29212. As to the method: as §2
Series [8] has as its system Escherichia coli MMX102-ATCC 25922. The series can be described thus: Broth microdilution susceptibility testing (CLSI). The series is classed as cell-based. As to conditions: for MIC: Escherichia coli, ATCC25922, read-out: MIC Escherichia coli 102-25922. As to the method:
as §2

Series [9] relates to Pseudomonas aeruginosa MMX103-ATCC 27853. Briefly: Broth microdilution susceptibility testing (CLSI). The note with it: Pseudomonas aeruginosa, ATCC27853, read-out: MIC Pseudomonas aeruginosa 103-27853. The series is classed as cell-based. On the procedure: as §2
Series [10] concerns Staphylococcus aureus (MRSA) MMX757. Briefly: Broth microdilution susceptibility testing (CLSI). The note with it: Staphylococcus aureus, MRSA, read-out: MIC Staphylococcus aureus (MRSA) 757-NA. Format: cell-based. As to the method: as §2
Series [11] relates to Staphylococcus aureus MMX100-ATCC 29213. Briefly: Broth microdilution susceptibility testing (CLSI). Format: cell-based. The note with it: Staphylococcus aureus, ATCC29213, read-out: MIC Staphylococcus aureus 100-29213. On the procedure:
as §2

The subject of series [12] is Streptococcus pneumoniae MMX1195-ATCC 49619. The series can be described thus: Broth microdilution susceptibility testing (CLSI). Format: cell-based. As to conditions: Streptococcus pneumoniae, ATCC49619, read-out: MIC Streptococcus pneumoniae 1195-49619. As to the method:
as §2

The next series is described as follows: LUV leakage assay. On the procedure: Large unilamellar vesicles were prepared by the extrusion technique. Vesicles were made of Di-Palmoyl-Phosphatidyl Choline (DPPC, Avanti Polar Lipids) with or without 0.1 mol % Lipid II. Vesicles were prepared with 50 mM rhodamine, washed with saline solution and purified by G25 Sephadex column (GE healthcare). Compounds were diluted in saline solution in 96-well plate format and vesicles were added to each well. The increase of fluorescence intensity was measured at 612 nm (excitation at 544 nm) on a Molecular Dynamics spectrophotometer at 20 °C. Compound-induced leakage was expressed relative to the total amount of rhodamine released after lysis of the vesicles by addition of 10 µl of 20% Triton X-100.

A further series has as its system human red blood cells. Briefly: Red Blood Cell (RBC) lysis. The series is classed as cell-based. As to conditions: human RBCs, 30 min, room temperature, up to 16× MIC. On the procedure: The method described by Stasiuk et al. was followed in general. Defibrinated human blood (Valley BioMedical) was washed three times with buffer (10 mM Tris-HCl, pH 7.4, 0.9% NaCl) and resuspended to a final concentration of 3% RBCs immediately prior to performing the assay. One hundred eighty microliters of RBCs were added to 1020 µl buffer containing various concentrations of the investigational compound. […] DMSO alone (5% final concentration) served as the negative control to subtract the background, while a reaction with water substituted for buffer served as a positive control that completely lyses the RBCs. […] Incubation of compounds and RBCs proceeded for 30 minutes at room temperature, followed by centrifugation at 1,300× g for 5 minutes to pellet the RBCs. Finally, 300 µl of the supernatant was removed to a 96-well plate and the released hemoglobin was measured at A540 using a SpectraMax (Molecular Dynamics) plate reader. Prism (GraphPad) software was used for data analysis. Results were expressed as percent lysis compared to treatment of RBCs with deionized water, which completely ruptures the membrane. Analyses were performed by Micromyx, LLC (Kalamazoo, Michigan).

A short description of series [13]: NMR interaction with Lipid II. Format: binding. As to conditions: 1D proton chemical shift changes on addition to 3-Lipid II. As to the method:
The NMR samples consisted of 0.15 mM Lipid II, 0.15 mM BAS00127538 compound, or 0.15 mM Lipid II+0.15 mM BAS00127538 compound. All samples were dissolved in 90% double distilled H20+10% DMSO, incubated for 30 minutes, freeze-dried, and then dissolved in 300 µL of d6-DMSO. NMR experiments were carried out at 25°C on an 800 MHz Bruker Avance NMR spectrometer (800.27 MHz for protons) equipped with a pulse-field gradient unit, four frequency channels, and a triple resonance TXI cryoprobe (Bruker Biospin, Billerica, MA). 1D proton experiments were collected to probe for chemical shift changes and 2D TOCSY (30, 60, and 90 msec spinlock times), 2D NOESY (150 and 300 msec mixing times), and natural abundance ^13C-HSQC experiments were collected to determine proton and carbon chemical shift assignments.

Usually MIC stands for the least concentration at which growth counts as inhibited. As a reminder, the Kd is a measure of binding affinity in units of concentration. High values mean a looser complex, low ones a tighter complex.

Consider `CN(C)c1ccc(/C=C/c2cc(-c3ccccc3)[o+]c(-c3ccccc3)c2)cc1` [Compound 1499-1221], for which the “Binding on Lipid II?” value in series [1] was “No”. Further, the “active against E.coli (IC100%)” value in series [2] turned out to be 125 µM. The “Bacterial Killing E. coli” value in [2] was 125 µM. Moreover, in series [3], the “Bacterial Killing S. aureus” value is 0.031 µM. For the same compound, the IC50 at 24 h in series [4] was 8.9 µM. Moreover, in series [5], the IC50 at 4 h was determined as 18.6 µM. Also, the MIC in series [6] was 2 µg/mL; in series [7], 2 µg/mL; in series [8] it was more than 16 µg/mL; in series [9], more than 16 µg/mL; in series [10] it was 0.5 µg/mL; in [11], 0.25 µg/mL. For the same compound, the MIC in series [12] was more than 8 µg/mL. In addition, the “membrane rupture in LUVs” value in the series “LUV leakage assay” (LUVs with or without Lipid II) is given as “significant membrane rupture in LUVs irrespective of Lipid II”. In addition, in the series with human red blood cells, the “lysis of red blood cells” value is on record as “significant membrane rupture”. Further, the “interaction with Lipid II by NMR” value in series [13] is “could not be confirmed”.
With `CN1/C(=C/C=C/c2cc(-c3ccccc3)cc(-c3ccccc3)[o+]2)C(C)(C)c2ccccc21` [BAS00127538, 2,4-diphenyl-6-[(1E)-3-[(2E)-1,3,3-trimethyl-2,3-dihydro-1H-indol-2-ylidene]prop-1-en-1-yl]-1$l^4-pyran-1-ylium], the “Binding on Lipid II?” value in series [1] is on record as “Yes”. In [1] (immobilized 3-Lipid II), this compound yielded a Kd of 1.71 µM. For the same compound, in series [2], the “active against E.coli (IC100%)” value is given as 7,8 µM. Besides, the “Bacterial Killing E. coli” value in series [2] was determined as 7.8 µM. The “Bacterial Killing S. aureus” value in [3] came out at 0.244 µM. In addition, the IC50 at 24 h in series [4] is 2.7 µM. Moreover, the IC50 at 4 h in [5] was 14.5 µM. Moreover, the MIC in series [6] is 1 µg/mL; in series [7] it was 1 µg/mL; in series [8], 4 µg/mL; in series [9], more than 8 µg/mL; in series [10] it was 0.5 µg/mL; in series [11], 0.5 µg/mL. For the same compound, the MIC in series [12] was found to be 8 µg/mL. Besides, the “MIC Escherichia coli 102-25922” value in [8] is recorded as 4 µg/mL. For the same compound, the “leakage of LUVs” value in “LUV leakage assay” (8 µg/ml (16× MIC for S. aureus)) is recorded as “significant leakage”. For the same compound, in “LUV leakage assay” (LUVs with vs without Lipid II), the “effect of Lipid II on compound-induced lysis of LUVs” value is “reduced by the presence of Lipid II”. Also, the “lysis of red blood cells” value in the series with human red blood cells is “does not induce lysis of red blood cells”. Also, the “interaction with Lipid II by NMR” value in series [13] was “found to interact”.
